Experimental data taken from PMC6494845 (Scientific Reports, 2019).
Values joined by “and” are separate entries in the source; they are usually repeats but may differ in a detail not shown here. Equal values may be shown once. Read-outs that look alike come from different tables or passages of the source.

Experiments:
[1] = design: method as in PMID 17004725; conditions: normal mice; cited from earlier work
[2] = tested on: Aβ aggregates; design: method as in PMID 17004725; conditions: compared with curcumin; cited from earlier work
[3] = target: T1, Aβ(1–42) aggregates (Homo sapiens, UniProt P05067); assay: In vitro binding assay using Aβ(1–42) aggregates (intrinsic fluorescence of the ligands); conditions: Aβ(1–42) aggregates 1 μM, PBS, 37 °C, 1 h, ligand fluorescence
T1 construct: β-Amyloid(1–42) peptide was purchased from Bachem; purchased Bachem (Torrance, CA, USA)
Description: Binding constants of the ligands for Aβ(1–42) aggregates were determined using the intrinsic fluorescence of the ligands. The binding constant of CRANAD-2 was also measured for comparison. […] Considering the Kd values and feasibility of ^18F-labeling of all the ligands, ligand 2 was selected for further in vitro and in vivo studies.
Aβ(1–42) aggregates were prepared as described in the literature. Briefly, Aβ(1–42) peptide (200 μM) was dissolved in PBS and stirred gently at 37 °C for 2 d. The Aβ(1–42) aggregate formation was confirmed by thioflavin-T fluorescence assay. In vitro binding assays were carried out using the methods described in the literature with some modifications. Various concentrations of ligands (10–400 nM) were dissolved in DMSO, which were then added to PBS solutions of Aβ(1–42) aggregates (1 μM) charged in 96-well black clear-bottom plates. The final concentration of DMSO in a total volume of solution was 1%. Non-specific binding was determined in the absence of Aβ(1–42) aggregates. The reaction mixtures were incubated at 37 °C for 1 h, after which the fluorescence spectra of the ligands were obtained (excitation 510–560 nm and emission 590–660 nm) using a monochromator multimode microplate reader. All experiments were performed in triplicate. Kd values were determined using GraphPad Prism software 5.

[4] = target: Aβ(1–40) aggregates; design: method as in PMID 19807070; conditions: cited from earlier work
[5] = design: method as in PMID 19807070; conditions: cited from earlier work
[6] = design: method as in PMID 19807070; conditions: cited from earlier work; remark: listed apart in the source
[7] = Partition coefficient measurement (1-octanol/water); format: physicochemical; conditions: 1-octanol and water
Description: Difluoroboron complex formation lowered the lipophilicity of the curcumin derivative based on TLC analysis.
Partition coefficient of [^18F]2 was measured according to the method described in the literature. [^18F]2 was dissolved in 1-octanol (1 mL) and diluted with water (1 mL). The solution was vortexed vigorously for 5 min and then centrifuged. The 1-octanol and aqueous layers were separated out, and a 500-μL aliquot of each layer was removed and measured using a gamma counter. Samples from the 1-octanol and aqueous layers were repartitioned until consistent values were obtained. The log P is expressed as the logarithm of the ratio of the counts per minute of 1-octanol versus that of water.

[8] = In vitro stability in PBS and FBS (radio-TLC); format: in vitro ADME; conditions: for remaining at 2 h: 37 °C, 120 min, radio-TLC, read-out: % remaining radioligand
Description: Stability study was performed by incubating [^18F]2 in phosphate-buffered saline (PBS) and in fetal bovine serum (FBS) at 37 °C for 120 min.
Data are presented as % remaining radioligand.
[^18F]2 (21.5 MBq) was dissolved in a minimal volume of 10% ethanol–saline and incubated with PBS or 50% FBS (Gibco, Brooklyn, NY, USA) at 37 °C for 120 min. Aliquots were taken from the incubation solution after 0, 2, 30, 60, and 120 min. The aliquots were analyzed using a radio-TLC scanner.

[9] = Metabolism study of [^18F]2 (radio-TLC of brain homogenates and blood); format: in vivo, ICR mice; conditions: brain homogenate, 2 min after injection
Description: However, the radioligand disappeared almost entirely, and the new polar radioactive peaks appeared at the origin of radio-TLC at 30 and 60 min after injection (82% and 100%, respectively; Fig. 9c,d). The radioligand also disappeared in the blood samples, but at a rate slower than that of the brain samples (Fig. 9f–h). The polar radioactive products were further analyzed by radio-TLC using a polar developing solvent system, and the polar products moved toward the solvent front. […] Moreover, the polar products were not adsorbed onto calcium phosphate (7% in calcium phosphate pellet vs. 93% in supernatant), which is a component of the bone matrix.
Figure 9 Radio-TLC analysis of the brain homogenates and blood samples obtained at 2, 30, and 60 min after injection of [^18F]2 into ICR mice. […] The 60-min samples (d and h) were further analyzed by radio-TLC using a 1:1:0.01 mixture of dichloromethane–methanol–triethylamine as the developing solvents (e and i). TLC analysis followed by fluorescence detection of the brain homogenates obtained at 2, 30, and 60 min after injection of 2 into Balb/C nude mice (j). […]
[^18F]2 (19.6 MBq) dissolved in 10% ethanol–saline was injected into ICR mice via a tail vein. […] The supernatants were analyzed by radio-TLC using a 4:1 mixture of ethyl acetate–hexane or a 1:1:0.01 mixture of dichloromethane–methanol–triethylamine as the developing solvents.

[10] = Biodistribution study; format: in vivo; conditions: ICR mice, i.v.
Description: However, there was poor brain uptake at 2 min after injection with increased uptake over time, as follows: 0.49 ± 0.02% ID/g at 2 min, 1.02 ± 0.08% ID/g at 30 min, and 1.19 ± 0.06% ID/g at 60 min (Table 1).
ICR mice (male, 7-week-old, four mice per time point) were injected with [^18F]2 (1.85 MBq) dissolved in 10% ethanol–saline via a tail vein. Mice were sacrificed at the indicated time points (2, 30, and 60 min). Samples of blood and major tissues (heart, lung, liver, spleen, kidney, intestines, muscle, femur, and brain) were removed, weighed, and counted in a Wizard[2] automatic gamma counter (PerkinElmer, Waltham, MA, USA). Data are expressed as the percent injected dose per gram of tissue (% ID/g).

[11] = tested on: HIV-1 protease; design: method as in PMID 8087563; conditions: cited from earlier work
[12] = design: method as in PMID 9278892; conditions: cell culture medium containing 10% fetal calf serum and human blood, at 1 h; cited from earlier work

T1 sequence (P05067 672-713): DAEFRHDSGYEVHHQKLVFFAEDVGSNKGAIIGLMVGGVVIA

COc1cc(/C=C/C(=O)CC(=O)/C=C/c2ccc(OCCC[18F])c(OC)c2)ccc1O [4′-O-[^18F]fluoropropylcurcumin]
brain permeability [1]: poor brain permeability

COc1cc(/C=C/C(=O)CC(=O)/C=C/c2ccc(OCCCF)c(OC)c2)ccc1O [4′-O-fluoropropylcurcumin]
in vitro binding affinity for Aβ aggregates [2]: much higher than that of curcumin

CN(C)c1ccc(/C=C/C2=CC(/C=C/c3ccc(N(C)C)cc3)=[O+][B-](F)(F)O2)cc1 [CRANAD-2]
Kd [3]: 19.4 nM
Kd [4]: 38.7 nM and 38 nM
stability in serum [5]: stability in the serum
blue shift when binding to the Aβ aggregates [6]: 90 nm
emission ([6]; in methanol): 760 nm

CN(C)c1ccc(/C=C/C2=[O+][B-](F)(F)OC(/C=C/c3ccc(OCCOCC[18F])cc3)=C2)cc1 [[^18F]2]
logP [7]: 2.58 ± 0.04
remaining at 120 min ([8]; bovine, PBS and fetal bovine serum (50%), both PBS and FBS, read-out: % remaining radioligand (stable in both PBS and FBS)): > 83%
remaining at 2 h ([8]; bovine, fetal bovine serum (50%), FBS (50% FBS in method)): 83%
remaining at 2 h ([8]; phosphate-buffered saline, PBS): 89%
[^18F]2 remaining in the brain [9]: 84%
Biodistribution, Blood ([10]; 2 min): 1.49 ± 0.12 % ID/g
Biodistribution, Brain ([10]; 2 min): 0.49 ± 0.02 % ID/g
Biodistribution, Femur ([10]; 2 min): 0.58 ± 0.10 % ID/g
Biodistribution, Heart ([10]; 2 min): 2.20 ± 0.57 % ID/g
Biodistribution, Kidney ([10]; 2 min): 3.25 ± 0.48 % ID/g
Biodistribution, Large intestine ([10]; 2 min): 0.24 ± 0.05 % ID/g
Biodistribution, Liver ([10]; 2 min): 26.92 ± 1.58 % ID/g
Biodistribution, Lung ([10]; 2 min): 3.56 ± 0.25 % ID/g
Biodistribution, Muscle ([10]; 2 min): 0.49 ± 0.19 % ID/g
Biodistribution, Small intestine ([10]; 2 min): 0.92 ± 0.13 % ID/g
Biodistribution, Spleen ([10]; 2 min): 12.59 ± 2.42 % ID/g
Biodistribution, Blood ([10]; 30 min): 2.50 ± 0.22 % ID/g
Biodistribution, Brain ([10]; 30 min): 1.02 ± 0.08 % ID/g
Biodistribution, Femur ([10]; 30 min): 0.91 ± 0.13 % ID/g
Biodistribution, Heart ([10]; 30 min): 1.93 ± 0.19 % ID/g
Biodistribution, Kidney ([10]; 30 min): 4.11 ± 0.46 % ID/g
Biodistribution, Large intestine ([10]; 30 min): 0.95 ± 0.11 % ID/g
Biodistribution, Liver ([10]; 30 min): 14.21 ± 1.39 % ID/g
Biodistribution, Lung ([10]; 30 min): 2.62 ± 0.29 % ID/g
Biodistribution, Muscle ([10]; 30 min): 0.97 ± 0.11 % ID/g
Biodistribution, Small intestine ([10]; 30 min): 6.47 ± 1.63 % ID/g
Biodistribution, Spleen ([10]; 30 min): 11.66 ± 2.70 % ID/g
Biodistribution, Blood ([10]; 60 min): 3.46 ± 0.81 % ID/g
Biodistribution, Brain ([10]; 60 min): 1.19 ± 0.06 % ID/g
Biodistribution, Femur ([10]; 60 min): 1.43 ± 0.14 % ID/g
Biodistribution, Heart ([10]; 60 min): 1.87 ± 0.20 % ID/g
Biodistribution, Kidney ([10]; 60 min): 2.58 ± 0.15 % ID/g
Biodistribution, Large intestine ([10]; 60 min): 2.16 ± 0.42 % ID/g
Biodistribution, Liver ([10]; 60 min): 9.36 ± 0.18 % ID/g
Biodistribution, Lung ([10]; 60 min): 2.34 ± 0.50 % ID/g
Biodistribution, Muscle ([10]; 60 min): 0.87 ± 0.05 % ID/g
Biodistribution, Small intestine ([10]; 60 min): 14.92 ± 4.06 % ID/g
Biodistribution, Spleen ([10]; 60 min): 10.72 ± 2.45 % ID/g

curcumin
IC50 [11]: 100000 nM
stability (% remaining) [12]: > 80%
emission ([6]; in methanol): 560 nm
excitation ([6]; in methanol): 510 nm
